In assay [1] the target is Tyrosine-protein kinase Lck (Homo sapiens, UniProt P06239). Nature of the assay: DRUGMATRIX: Protein Tyrosine Kinase, LCK enzyme inhibition (substrate: Poly(Glu:Tyr)). Format: cell-based, Insect cells. As to conditions: insect cells; Not Active = under 50% inhibition at 10 µM.
Assay [2] is described as follows: DRUGMATRIX: GABAA, Chloride Channel, TBOB radioligand binding (ligand: [3H] TBOB). Format: cell membranes, Rattus norvegicus, Wistar, Cerebral cortex, Membrane. The settings on record: Not Active = under 50% inhibition at 10 µM.
A further assay concerns the target Melanocortin receptor 5 (Homo sapiens, UniProt P33032). Format: cell membranes, HEK293, Membrane. As to conditions: hek293. Further: in other assays of this panel Not Active means under 50% inhibition at 10 µM.
Assay [3] deals with Beta-3 adrenergic receptor (Homo sapiens, UniProt P13945). Nature of the assay: DRUGMATRIX: Adrenergic beta3 radioligand binding (ligand: [125I] Cyanopindolol). The settings on record: Not Active = under 50% inhibition at 10 µM. Format: cell membranes, HEK293, Membrane.
A short description of assay [4]: DRUGMATRIX: Potassium Channel [KATP] radioligand binding (ligand: [3H] Glyburide). Format: cell membranes, Membrane. As to conditions: hit-t15; Not Active = under 50% inhibition at 10 µM.
For assay [5], the target named is cGMP-specific 3',5'-cyclic phosphodiesterase (Homo sapiens, UniProt O76074). The assay can be described thus: DRUGMATRIX: Phosphodiesterase PDE5 enzyme inhibition (substrate: [3H]cGMP + cGMP). As to conditions: platelet; Not Active = under 50% inhibition at 10 µM. Format: tissue-based, Platelet.

Sequence of Tyrosine-protein kinase Lck (P06239 whole entry): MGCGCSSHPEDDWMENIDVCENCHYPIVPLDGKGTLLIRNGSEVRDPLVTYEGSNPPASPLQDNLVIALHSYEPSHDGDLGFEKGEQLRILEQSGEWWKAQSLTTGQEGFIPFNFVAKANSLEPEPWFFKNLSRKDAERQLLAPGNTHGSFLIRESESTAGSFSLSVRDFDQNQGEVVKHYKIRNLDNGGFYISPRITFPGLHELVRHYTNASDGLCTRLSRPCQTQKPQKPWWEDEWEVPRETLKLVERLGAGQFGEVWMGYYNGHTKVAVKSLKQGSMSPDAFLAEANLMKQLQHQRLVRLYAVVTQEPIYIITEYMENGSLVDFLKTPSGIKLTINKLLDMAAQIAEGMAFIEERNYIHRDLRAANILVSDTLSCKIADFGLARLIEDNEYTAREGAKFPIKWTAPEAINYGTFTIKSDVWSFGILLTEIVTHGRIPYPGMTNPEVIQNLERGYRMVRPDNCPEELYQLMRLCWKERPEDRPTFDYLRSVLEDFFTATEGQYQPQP
Sequence of Melanocortin receptor 5 (P33032 whole entry): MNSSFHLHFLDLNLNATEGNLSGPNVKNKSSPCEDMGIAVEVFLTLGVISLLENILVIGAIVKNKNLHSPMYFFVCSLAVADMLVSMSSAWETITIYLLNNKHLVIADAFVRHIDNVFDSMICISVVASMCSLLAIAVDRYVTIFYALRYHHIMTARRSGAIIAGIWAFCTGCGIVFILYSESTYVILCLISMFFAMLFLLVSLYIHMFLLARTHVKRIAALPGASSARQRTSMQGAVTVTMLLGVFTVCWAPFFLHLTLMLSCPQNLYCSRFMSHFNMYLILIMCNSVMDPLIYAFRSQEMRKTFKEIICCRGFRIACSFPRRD
Sequence of Beta-3 adrenergic receptor (P13945 whole entry): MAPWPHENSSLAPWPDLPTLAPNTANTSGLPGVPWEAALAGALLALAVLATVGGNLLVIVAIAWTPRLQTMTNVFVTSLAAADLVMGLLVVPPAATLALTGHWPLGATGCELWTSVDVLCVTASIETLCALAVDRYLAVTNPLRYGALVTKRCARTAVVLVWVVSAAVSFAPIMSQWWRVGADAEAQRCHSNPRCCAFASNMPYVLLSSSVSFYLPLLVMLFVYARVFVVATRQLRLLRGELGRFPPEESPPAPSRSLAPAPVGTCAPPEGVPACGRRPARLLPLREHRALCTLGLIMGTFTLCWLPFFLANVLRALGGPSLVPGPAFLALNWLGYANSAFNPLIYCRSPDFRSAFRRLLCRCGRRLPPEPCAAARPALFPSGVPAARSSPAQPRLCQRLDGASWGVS

With `c1ccc(Cn2ccnc2)cc1`, the IC50 result (in assay [1]; in assay [2]; on Melanocortin receptor 5; in assay [3] (hek293); in assay [4]; in assay [5]) was “Not Active” throughout. In addition, the Ki entry in assay [2] and in assay [4] was “Not Active” in each case.
Regarding `C[N+](C)(C)CCOP(=O)([O-])OC[C@H](O)CO`, the IC50 result (in assay [1]; in assay [2]; on Melanocortin receptor 5; in assay [3] (hek293); in assay [4]; in assay [5]) was “Not Active” throughout. The Ki result in assay [2] and in assay [4] was “Not Active” throughout.
Regarding `NC(=O)CN1CCCC1=O`, the IC50 entry (in assay [1]; in assay [2]; at Melanocortin receptor 5; in assay [3] (hek293); in assay [4]; in assay [5]) was “Not Active” in each case. Further, the Ki result in assay [2] and in assay [4] was “Not Active” in each case.
As to `OC[C@H]1OC2C3[C@@H](CO)OC(O[C@H]4[C@H](O)[C@@H](O)[C@@H](O[C@H]5[C@H](O)[C@@H](O)[C@@H](O[C@H]6[C@H](O)[C@@H](O)[C@@H](O[C@H]7[C@H](O)[C@@H](O)[C@@H](O[C@H]8[C@H](O)[C@@H](O)[C@@H](O[C@H]9[C@H](O)[C@@H](O)C(OC1[C@H](O)[C@H]2O)O[C@@H]9CO)O[C@@H]8CO)O[C@@H]7CO)O[C@@H]6CO)O[C@@H]5CO)O[C@@H]4CO)[C@H](O)[C@H]3O`, the IC50 entry (in assay [1]; in assay [2]; against Melanocortin receptor 5; in assay [3] (hek293); in assay [4]; in assay [5]) was “Not Active” throughout. The Ki result in assay [2] and in assay [4] was “Not Active” throughout.
As to `CN(CCOc1ccc(C[C@H](Nc2ccccc2C(=O)c2ccccc2)C(=O)O)cc1)c1ccccn1`, the IC50 entry in assay [1] is “Not Active”; in assay [2], “Not Active”; against Melanocortin receptor 5, “Not Active”; in assay [3] (read-out: IC50) it was 22.1 µM; in assay [4], “Not Active”; in assay [5], “Not Active”. The Ki entry is “Not Active” in assay [2], 16.6 µM in assay [3] (read-out: Ki) and “Not Active” in assay [4].
Regarding `O=c1[nH]c2ccccc2c2ccccc12`, the IC50 result (in assay [1]; in assay [2]; against Melanocortin receptor 5; in assay [3] (hek293); in assay [4]; in assay [5]) was “Not Active” throughout. The Ki result in assay [2] and in assay [4] was “Not Active” in each case.
Regarding `CO[C@H]1O[C@@H]2O[C@@]3(C)CC[C@H]4[C@H](C)CC[C@@H]([C@H]1C)[C@@]24OO3`, the IC50 result (in assay [1]; in assay [2]; against Melanocortin receptor 5; in assay [3] (hek293); in assay [4]; in assay [5]) was “Not Active” each time. Moreover, the Ki result in assay [2] and in assay [4] was “Not Active” throughout.
For `Nc1ccc(Cc2ccc(N)cc2)cc1`, the IC50 result (in assay [1]; in assay [2]; against Melanocortin receptor 5; in assay [3] (hek293); in assay [4]; in assay [5]) was “Not Active” throughout. The Ki entry in assay [2] and in assay [4] was “Not Active” each time.
With `C=C(Cl)Cl` [1,1-DICHLOROETHENE], the IC50 entry (in assay [1]; in assay [2]; against Melanocortin receptor 5; in assay [3] (hek293); in assay [4]; in assay [5]) was “Not Active” throughout. Moreover, the Ki entry in assay [2] and in assay [4] was “Not Active” in each case.
`CC(=O)Nc1ccc2c(c1)Cc1ccccc1-2` [2-ACETYLAMINOFLUORENE]: the IC50 entry (in assay [1]; in assay [2]; against Melanocortin receptor 5; in assay [3] (hek293); in assay [4]; in assay [5]) was “Not Active” in each case. For the same compound, the Ki entry in assay [2] and in assay [4] was “Not Active” in each case.
As for `O=C(Nc1ccc(Cl)c(Cl)c1)c1cc(Cl)cc(Cl)c1O` [3,3',4',5-TETRACHLOROSALICYLANILIDE], the IC50 result (in assay [1]; in assay [2]; on Melanocortin receptor 5; in assay [3] (hek293); in assay [4]; in assay [5]) was “Not Active” in each case. Also, the Ki result in assay [2] and in assay [4] was “Not Active” throughout.
As to `O=C(O)COC(=O)Cc1ccccc1Nc1c(Cl)cccc1Cl` [ACECLOFENAC], the IC50 result (in assay [1]; in assay [2]; at Melanocortin receptor 5; in assay [3] (hek293); in assay [4]; in assay [5]) was “Not Active” each time. Besides, the Ki result in assay [2] and in assay [4] was “Not Active” in each case.
For the compound `CCN1C[C@]2(COC)[C@H](O)C[C@H](OC)[C@@]34[C@@H]5C[C@@]6(O)[C@H](OC(=O)c7ccccc7)[C@@H]5[C@@](OC(C)=O)([C@@H]([C@H](OC)[C@H]23)[C@@H]14)[C@@H](O)[C@@H]6OC` [ACONITINE], the IC50 entry (in assay [1]; in assay [2]; against Melanocortin receptor 5; in assay [3] (hek293); in assay [4]; in assay [5]) was “Not Active” in each case. Besides, the Ki result in assay [2] and in assay [4] was “Not Active” throughout.
For `CCO` [ALCOHOL], the IC50 result (in assay [1]; in assay [2]; on Melanocortin receptor 5; in assay [3] (hek293); in assay [4]; in assay [5]) was “Not Active” in each case. For the same compound, the Ki entry in assay [2] and in assay [4] was “Not Active” each time.
Consider `OC[C@H]1O[C@@H]2O[C@H]3[C@H](O)[C@@H](O)[C@@H](O[C@H]4[C@H](O)[C@@H](O)[C@@H](O[C@H]5[C@H](O)[C@@H](O)[C@@H](O[C@H]6[C@H](O)[C@@H](O)[C@@H](O[C@H]7[C@H](O)[C@@H](O)[C@@H](O[C@H]1[C@H](O)[C@H]2O)O[C@@H]7CO)O[C@@H]6CO)O[C@@H]5CO)O[C@@H]4CO)O[C@@H]3CO` [ALFADEX], for which the half-inhibitory concentration (IC50) entry (in assay [1]; in assay [2]; at Melanocortin receptor 5; in assay [3] (hek293); in assay [4]; in assay [5]) was “Not Active” throughout. For the same compound, the Ki entry in assay [2] and in assay [4] was “Not Active” each time.
As for `COc1ccccc1OCCNCC(O)COc1cccc2[nH]c3ccccc3c12` (centres undefined) [CARVEDILOL], the IC50 entry (in assay [1]; in assay [2]; against Melanocortin receptor 5; in assay [4]; in assay [5]) was “Not Active” throughout. Moreover, the Ki result in assay [2] and in assay [4] was “Not Active” each time.
With `NC(N)=Nc1nc(CSCCC(N)=NS(N)(=O)=O)cs1` [FAMOTIDINE], the IC50 entry (in assay [1]; in assay [2]; at Melanocortin receptor 5; in assay [3] (hek293); in assay [5]) was “Not Active” throughout. In assay [2], the Ki entry is on record as “Not Active”.

For the origin of these results see ChEMBL document CHEMBL1909046, “DrugMatrix in vitro pharmacology data”.
